Patent US12599599B2, “Anti-inflammatory, anti-cancer, and anti-angiogenic compounds, pharmaceutical compositions, and methods of making and using thereof” (MEDICON PHARMACEUTICALS, INC., priority 2017, dated 2026)

Assays:
[1] = system: 5′-cap dependent translation initiation; assay: Renilla-Firefly luciferase dual translation assay in SKOV-3 cells; type: cell-based, human
Source text: (§1) FIG. 13A: Compound 5 induces the phosphorylation of eIF2α, confirming integrated stress response. p-eIF2αinduces ATF4 that suppresses 5′-cap dependent translation initiation, shown below. […] The levels of reporter proteins used in the translation assay (Pierce™ Renilla-Firefly Luciferase Dual Assay Kit; Thermo Scientific, Grand Island, NY) were normalized to the levels of intracellular FLUC-RLUC transcripts and are shown as percent of untreated control cells. RLU=Relative light units. 5′-cap dependent translation initiation was much less and occurred later. Values: Mean±SEM; *, p<0.05 and **, p<0.01 vs. control. […] Loading controls: β-actin and GADPH.

[2] = system: SKOV-3 human ovarian cancer cells; assay: Transmission electron microscopy, ER stress; type: cell-based; conditions: 1.5×IC50
Protocol: (§2) FIGS. 12A-12C and FIGS. 13A-13C illustrate key findings related to the mechanism of action of compound 5 against ovarian cancer. The studies shown here were performed in SKOV-3 human ovarian cancer cells. FIG. 12A: Left: Compound 5 increases the percentage of cells with acridine orange staining determined by flow cytometry (4% 4→38% after treatment with compound 5) and indicating the induction of autophagy. Right: Electron micrographs show morphological features of cells undergoing autophagy. Yellow arrowheads: vacuoles; white arrowheads: autophagosomes. […] N: nucleus; ER: endoplasmic reticulum with visible ribosomes. The left micrograph shown normal ER (circled) in a vehicle-treated cell. […] The latter finding is diagnostic of ER stress. Magnification: 6,800×. FIG. 12C: Compound 5 suppresses STAT3, mTOR and JNK activation by phosphorylation, as well as the levels of COT.

[3] = system: mTOR; assay: Activation by phosphorylation in SKOV-3 cells; type: cell-based, human
Protocol: as §2

[4] = system: STAT3; assay: Activation by phosphorylation in SKOV-3 cells; type: cell-based, human
Protocol: as §2

[5] = system: JNK; assay: Activation by phosphorylation in SKOV-3 cells; type: cell-based, human
Protocol: as §2

[6] = system: eIF2α; assay: Phosphorylation in SKOV-3 cells (integrated stress response); type: cell-based, human
Source text: as §1

[7] = system: GCN2; assay: Activation by phosphorylation in SKOV-3 cells; type: cell-based, human; conditions: 1.5×IC50
Source text: as §1

[8] = system: PERK; assay: Activation by phosphorylation in SKOV-3 cells; type: cell-based, human; conditions: 1.5×IC50
Source text: as §1

[9] = system: Ras palmitoylation in A2780 and A2780cis ovarian cancer cells; assay: Ras palmitoylation (resin capture, immunoblot); type: cell-based, human
Protocol: FIGS. 18A-18B illustrate the effect of compounds 5 and 6 on K-Ras. FIG. 18A: Compound 6 suppressed of K-Ras activation. Cells with mutant K-Ras were treated with compound 6 1.5×IC50 for the respective time periods. K-Ras activity was determined by Ras pull-down (Thermo Scientific; following vendor instructions). K-Ras activation is suppressed 37% at 1 hr and 88% at 2 hrs compared to respective controls. FIG. 18B: Compound 5 suppressed the palmitoylation of Ras in A2780 and A2780cis (resistant to cisplatin) ovarian cancer cells. Palmitoylation is detected by removing S-palmitate groups from proteins, creating new free thiols (where the palmitic acid group used to be) and capturing the previously S-palmitoylated proteins on a resin, using a commercial kit (Badrilla, Leeds, UK). Ras was detected in the eluate by immunoblot.
This effect may be particularly useful in types of cancer characterized by K-Ras mutation such as, for example, pancreatic, lung and ovarian cancer. FIG. 18A illustrates the inhibition of K-Ras activation by compound 6. […] This property of compound 5 is not shared for example by compound 6 or phosphosulindac.

[10] = system: A2780 xenografts; assay: Subcutaneous xenografts in nude mice, platinum sensitive; type: in vivo; conditions: compound 5 15 mg/kg/day six days a week ip; cis-platinum 5.5 mg/kg one time a week ip
Protocol: To determine whether compound 5 is efficacious against chemotherapy-resistant ovarian cancer, three pairs of sensitive and resistant human ovarian cancer cell lines were grown as subcutaneous xenografts in nude mice and treated as summarized in FIG. 10. These cell lines were: A2780, sensitive to both cis-platinum and Adriamycin (doxorubicin); A2780cis, resistant to cis-platinum; A2780ADR, resistant to Adriamycin: HEY, sensitive to Taxol; HEY-T30, resistant to Taxol. The treatments administered were: vehicle control; compound 5, 15 mg/kg/day six days a week, ip; cis-platinum 5.5 mg/kg, one time a week ip; Adriamycin 3 mg/kg twice a week ip; and Taxol 20 mg/kg twice a week ip.

[11] = system: VEGF-A; assay: Secreted VEGF in culture medium by ELISA; type: cell-based, human
Protocol: (§3) The effect of compounds 2, 5, and 6 on VEGF production was examined. For example, SKOV-3 ovarian cancer cells grown in culture were treated with compound 5 1×IC50 for up to 24 h. Secreted VEGF was assayed in the culture medium by ELISA (R&D Systems). […] For example, at 24 h, the reduction of secreted VEGF-A over the corresponding controls was: OVCAR3=100%, A2780=86%, A2780cis=100%, and A2780ADR=100%. Compound 5 suppressed VEGF-B by 90-92% compared to control. The anti-VEFG effect of Compound 5 is as strong in the drug-resistant as in the drug-sensitive cell lines.

[12] = system: VEGF-B; assay: Secreted VEGF in culture medium by ELISA; type: cell-based, human
Protocol: as §3

[13] = system: COT; assay: Protein levels in SKOV-3 cells; type: cell-based, human
Protocol: as §2

[14] = Ocular pharmacokinetics and biodistribution after eye drops; type: in vivo, New Zealand rabbits; design: unit not given here; conditions: rabbit, 20% eye drops
Protocol: The pharmacokinetics and biodistribution of compounds 1, 2, and 5 in the eye of rabbits were determined. Each of these compounds was dissolved in phosphate buffered saline (PBS) and used as eye drops. The eye drops were sterilized before application to rabbits by filtration through a 0.2 μm membrane. […] The eyes were harvested and eye tissues and the lacrimal glands were dissected, homogenized and the test compounds were extracted by acetonitrile and analyzed by HPLC, as described under Compound Synthesis described herein. Compounds 1 and 2 were detected at 328 nm, and compound 5 at 260 nm. […] All three compounds can unexpectedly, readily, and rapidly reach the posterior chamber of the eye.

CCN(CC)CCCCNC(=O)c1ccccc1SC/C=C(\C)CC/C=C(\C)CCC=C(C)C [Compound 5]
5′-cap dependent translation initiation [1]: suppresses predominantly | endoplasmic reticulum (ER) stress [2]: induction of endoplasmic reticulum (ER) stress | mTOR activation by phosphorylation [3]: suppresses | STAT3 activation by phosphorylation [4]: suppresses | JNK activation by phosphorylation [5]: suppresses | phosphorylation of eIF2α [6]: induces | GCN2 activation by phosphorylation [7]: activated by phosphorylation | PERK activation by phosphorylation [8]: activated by phosphorylation | suppression of palmitoylation of Ras [9]: suppressed | growth of platinum-sensitive xenografts [10]: suppressed the growth | reduction of secreted VEGF-A over controls ([11]; A2780, 24 h): 86% | reduction of secreted VEGF-A over controls ([11]; A2780ADR, 24 h): 100% | reduction of secreted VEGF-A over controls ([11]; A2780cis, 24 h): 100% | reduction of secreted VEGF-A over controls ([11]; OVCAR3, 24 h): 100% | suppression of secreted VEGF-A levels ([11]; SKOV-3, 1×IC50, 6 hr): 80% | suppression of secreted VEGF-A levels ([11]; SKOV-3, 1×IC50, 24 hr): 100% | suppression of VEGF-B compared to control [12]: 90-92% | levels of COT [13]: suppresses | Drug level in Vitreous [14]: 0.0 | Drug level in Ciliary body ([14]; 40 min): 0.0 | Drug level in Conjunctiva ([14]; 40 min): 33.2 | Drug level in Cornea ([14]; 40 min): 75.7 | Drug level in Iris ([14]; 40 min): 0.6 | Drug level in Lens ([14]; 40 min): 0.0 | Drug level in Retina ([14]; 40 min): 1.8 | Drug level in Sclera ([14]; 40 min): 1.3 | Drug level in Ciliary body ([14]; 60 min): 4.2 | Drug level in Conjunctiva ([14]; 60 min): 35.1 | Drug level in Cornea ([14]; 60 min): 96.7 | Drug level in Iris ([14]; 60 min): 1.9 | Drug level in Lens ([14]; 60 min): 0.0 | Drug level in Retina ([14]; 60 min): 3.4 | Drug level in Sclera ([14]; 60 min): 0.6 | Drug level in Vitreous ([14]; 60 min): 0.0
